Like-named read-outs stand apart in the source and are kept apart here. Starred links: 1 amine or outer side, 2 acyl side, 3 side chain; linkers in the order of their positions; H or OH if unused. Positions of bridges follow the written chain, without caps; N, C: chain ends. Non-standard residues stand in square brackets, D forms with d. Residues, ends and D or L forms follow the SMILES beside them. *: point of attachment. Phe(3-NHCO(CH2)3SO2NH2) = N[C@@H](Cc1cccc(NC(=O)CCCS(N)(=O)=O)c1)C(=O)O; DOTA = O=C(O)CN1CCN(CC(=O)O)CCN(CC(=O)*)CCN(CC(=O)O)CC1; mXylylene = c1cc(C[*:1])cc(C[*:2])c1; X2 = O=C(CN1CCC(N[*:1])CC1)[*:2]; Dap = NC[C@H](N)C(=O)O
How the values were obtained:
[1] = molecular target: T1, CAIX-expressing human HT-29 colorectal cancer cells (Homo sapiens, UniProt Q16790); assay: FACS binding assay (IC50 determination, competition with tracer 3BP-2776 or 3BP-4149); conditions: 4° C., 1 hour, read-out: pIC50 category (activity) (converted)
T1 construct: CAIX-expressing human HT-29 colorectal cancer cells; host or cells: HT-29 human colorectal cancer cells
Summary of the method: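 HT-29 cells in FACS buffer (PBS, 1% FCS) at 500.000 cells/ml were exposed to compounds competing with a labelled tracer, with biotinylated compounds detected by 1 μg/mL APC-streptavidin for 30 min on ice. APC/Cy5 median fluorescence was read by flow cytometry and IC50 derived by 4PL fit.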

[2] = molecular target: T2, human carbonic anhydrase IX (hCAIX-Fc) (Homo sapiens, UniProt Q16790); assay: Surface plasmon resonance assay with hCAIX-Fc; format: binding; conditions: for t1/2 category (activity): SPR dissociation half-life, hCAIX-Fc
T2 construct: purchased SinoBliological (Sino Biological) 10107-H02H

CAIV (hCAIV-bio) = molecular target: T3, CAIV (hCAIV-bio) (Homo sapiens, UniProt P22748); assay: SPR selectivity assay with biotinylated CAIV; format: binding; conditions: SPR, biotinylated CAIV; read-out: pKD category (affinity) CAIV (converted)
T3 construct: purchased SinoBliological (Sino Biological) 10472-1H081H
T3 sequence (P22748 19-284): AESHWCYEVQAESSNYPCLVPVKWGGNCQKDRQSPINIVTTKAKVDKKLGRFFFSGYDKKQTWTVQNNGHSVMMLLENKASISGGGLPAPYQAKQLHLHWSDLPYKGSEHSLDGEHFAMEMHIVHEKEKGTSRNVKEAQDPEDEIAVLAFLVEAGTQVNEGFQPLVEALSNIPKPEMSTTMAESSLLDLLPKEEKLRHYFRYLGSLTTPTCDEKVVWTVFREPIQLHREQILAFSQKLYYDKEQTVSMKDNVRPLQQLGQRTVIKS
Method: (§1) In order to test selectivity of CAIX-binding peptides toward CAIV (SinoBliological, Cat #10472-1H081H), CAXII (SinoBliological, Cat #10617-H08H or CAXIV (SinoBliological, Cat #10458-H08H), SPR assays were performed analog to the assay described above but with a different target capture procedure. For immobilization, the carbonic anhydrases were biotinylated and capture on the SPR chip using the Biotin CAPture Kit (cytiva) according to the manufacturer instructions using HBSTE, 0.1% as Running Buffer.
(§2) Table 13 describes the protocol steps for biotinylated target capturing and assessment of the binding kinetics.

CAXII (hCAXII-bio) = molecular target: T4, CAXII (hCAXII-bio) (Homo sapiens, UniProt O43570); assay: SPR selectivity assay with biotinylated CAXII; format: binding; conditions: SPR, biotinylated CAXII; read-out: pKD category (affinity) CAXII (converted)
T4 construct: purchased SinoBliological (Sino Biological) 10617-H08H
T4 sequence (O43570 25-354): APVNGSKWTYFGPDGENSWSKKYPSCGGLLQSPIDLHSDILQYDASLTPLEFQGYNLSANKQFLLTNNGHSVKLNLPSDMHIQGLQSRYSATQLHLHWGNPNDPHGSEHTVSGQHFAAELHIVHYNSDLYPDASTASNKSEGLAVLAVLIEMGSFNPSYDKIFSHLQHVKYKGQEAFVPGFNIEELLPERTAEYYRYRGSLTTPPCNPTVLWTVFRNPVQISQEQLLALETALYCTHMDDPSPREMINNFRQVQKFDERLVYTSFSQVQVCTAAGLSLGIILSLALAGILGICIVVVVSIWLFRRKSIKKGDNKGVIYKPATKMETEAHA
Method: as §1, §2

CAXIV (hCAXIV-bio) = molecular target: T5, CAXIV (hCAXIV-bio) (Homo sapiens, UniProt Q9ULX7); assay: SPR selectivity assay with biotinylated CAXIV; format: binding; conditions: SPR, biotinylated CAXIV; read-out: pKD category (affinity) CAXIV (converted)
T5 construct: purchased SinoBliological (Sino Biological) 10458-H08H
T5 sequence (Q9ULX7 16-337): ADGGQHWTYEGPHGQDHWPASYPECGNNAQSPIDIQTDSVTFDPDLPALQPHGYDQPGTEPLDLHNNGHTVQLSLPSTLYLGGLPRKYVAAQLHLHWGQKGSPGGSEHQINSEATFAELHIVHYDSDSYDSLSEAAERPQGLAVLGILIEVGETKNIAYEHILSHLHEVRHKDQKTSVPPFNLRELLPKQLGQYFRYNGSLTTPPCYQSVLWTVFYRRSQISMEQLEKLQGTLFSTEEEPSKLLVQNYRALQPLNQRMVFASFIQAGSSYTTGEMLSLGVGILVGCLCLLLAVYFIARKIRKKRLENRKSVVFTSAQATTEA
Method: as §1, §2

[3] = molecular target: T6, Recombinant soluble human NEP (Homo sapiens, UniProt P08473); assay: Proteolytic stability assay against NEP; format: in vitro ADME; conditions: 100 ng/mL NEP, 10 μM compound, 37°C
T6 construct: Recombinant soluble human NEP; purchased BioTechne, Wiesbaden, Germany
T6 sequence (P08473 52-750 limits assumed): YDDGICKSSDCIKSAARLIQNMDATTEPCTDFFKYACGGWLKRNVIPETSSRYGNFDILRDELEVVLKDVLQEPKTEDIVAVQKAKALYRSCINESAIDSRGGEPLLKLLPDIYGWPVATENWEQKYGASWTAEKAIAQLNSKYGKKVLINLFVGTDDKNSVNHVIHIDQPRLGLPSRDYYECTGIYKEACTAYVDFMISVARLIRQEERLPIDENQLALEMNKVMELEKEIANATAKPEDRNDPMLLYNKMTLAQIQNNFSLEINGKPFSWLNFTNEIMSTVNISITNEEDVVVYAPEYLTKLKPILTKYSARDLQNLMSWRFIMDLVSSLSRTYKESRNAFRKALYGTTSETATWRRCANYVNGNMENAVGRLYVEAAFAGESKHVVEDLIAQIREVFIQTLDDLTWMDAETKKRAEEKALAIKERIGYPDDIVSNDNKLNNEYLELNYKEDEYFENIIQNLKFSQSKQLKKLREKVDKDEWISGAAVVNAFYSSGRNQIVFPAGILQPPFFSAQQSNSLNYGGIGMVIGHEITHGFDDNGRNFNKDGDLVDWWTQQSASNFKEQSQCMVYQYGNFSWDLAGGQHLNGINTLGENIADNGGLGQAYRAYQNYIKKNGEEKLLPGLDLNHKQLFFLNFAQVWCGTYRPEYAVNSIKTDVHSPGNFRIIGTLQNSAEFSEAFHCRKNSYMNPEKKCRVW

dog CAIX = assay: Radioligand binding assay, 111In-labeled compounds, CHO-VGT cells with dog CAIX; conditions: 111In-labeled compound, 8 h at 37°C
Method: (§3) In order to assess the affinity of ^111In-labeled compounds to CAIX of different species, a radioligand binding assay was established.
(§4) CHO-VGT cells were transfected with the human, dog, and mouse CAIX (InSCREENex GmbH) and cultured in Ham's F-12 medium (Sigma-Aldrich #N4888) supplemented with 10% fetal bovine serum (FCS), 2 mM L-glutamine, 100 U/mL Penicillin, and 0.1 mg/mL streptomycin. Cells were detached with Accutase (Biolegend #423201) and counted using a particle counter (CASY Model TT; Scharfe Systems, Germany). Cell concentrations were adjusted to 3×10^5 mL^−1, and 1.000 μL of the suspension per well were dispensed into flat-clear-bottom 24 well plates.
(§5) Approximately 24 hours after re-seeding, the medium was aspirated and the cells were washed once with 1000 μL assay medium (Ham's medium without additives). To determine total binding, 700 μL of assay medium and 100 μL of the radioligand dilutions were added to the wells in triplicates. To determine non-specific binding, 600 μL of binding medium, 100 μL of the radioligand dilutions and 100 μL of a blocking solution containing 8 μM non-labeled compound were added to the wells in triplicates. At the end of incubation time (8 h at 37° C.), cells were washed and subsequently harvested in 300 μL RIPA buffer (Thermo Scientific #89901) containing Protease Inhibitor Cocktail Set I (Calbiochem #539131). Radioactivity of the cell lysate of each well was counted using a gamma counter (1470 Wizard, PerkinElmer, USA). An aliquot of each radioligand dilution was included in the gamma counter measurements to allow for determination of their actual concentrations via their known specific activity.

mouse CAIX = molecular target: T7, mouse CAIX (Mus musculus, UniProt Q8VHB5); assay: Radioligand binding assay, 111In-labeled compounds, CHO-VGT cells with mouse CAIX; conditions: 111In-labeled compound, Mouse CAIX, 8 h at 37°C; read-out: pKD category (activity) (converted)
T7 construct: host or cells: CHO-VGT / CHO cells
T7 sequence (Q8VHB5 32-437): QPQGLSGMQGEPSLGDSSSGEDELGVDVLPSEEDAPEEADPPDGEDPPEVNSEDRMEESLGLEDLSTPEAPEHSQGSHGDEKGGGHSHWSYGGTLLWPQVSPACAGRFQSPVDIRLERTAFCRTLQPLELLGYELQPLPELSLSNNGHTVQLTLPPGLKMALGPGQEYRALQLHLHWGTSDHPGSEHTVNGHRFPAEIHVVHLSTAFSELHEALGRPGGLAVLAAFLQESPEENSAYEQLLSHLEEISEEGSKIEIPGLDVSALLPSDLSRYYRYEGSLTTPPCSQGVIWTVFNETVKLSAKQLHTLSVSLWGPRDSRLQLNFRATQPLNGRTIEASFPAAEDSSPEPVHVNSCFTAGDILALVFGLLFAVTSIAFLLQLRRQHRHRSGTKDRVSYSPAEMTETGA
Method: as §3, §4, §5

[4] = Plasma stability assay, mouse plasma; conditions: mouse plasma, 37°C, 24 h
[5] = Plasma stability assay, human plasma; conditions: 37°C
[6] = mouse, plasma, 24 h
[7] = human, plasma
in vitro [8] = conditions: mouse, plasma
in vitro [9] = conditions: human, plasma
human CAIX = human CAIX (Homo sapiens, UniProt Q16790); assay: Radioligand binding assay, 111In-labeled compounds, CHO-VGT cells with human CAIX; parameters: host or cells: CHO-VGT / CHO cells; conditions: 111In-labeled compound, Human CAIX, 8 h at 37°C; read-out: pKD category (activity) (converted)
Method: as §3, §4, §5

SMILES	IC50 ([1]; FACS competition on HT-29 cells, Tracer ID 3BP-2776 (10 nM, biotin-labeled)) [nM]	t1/2 category (activity) ([2]; 25° C.)	Kd (CAIV (hCAIV-bio)) [nM]	Kd (CAXII (hCAXII-bio)) [nM]	Kd (CAXIV (hCAXIV-bio)) [nM]	% intact compound remaining after 24 h incubation [3] [%]	pKD category (activity) (dog CAIX)	Kd (mouse CAIX) [nM]	% intact compound remaining (incubation time) [4] [%]	% intact compound remaining after 24 h incubation [5] [%]	% intact compound remaining (incubation time) [6] [%]	% intact compound remaining after 24 h incubation [7] [%]	IC50 ([1]; FACS binding assay, HT-29 cells, competition with tracer 3BP-2776 (10 nM, biotin-labeled)) [nM]	pKD category (affinity) CAIX ([2]; SPR, hCAIX)	Kd ([2]; SPR, hCAIX-Fc captured, 25° C., read-out: pKD category (activity) (converted)) [nM]	remaining at 24 h, […] (in vitro [8]) [%]	remaining at 24 h, […] (in vitro [9]) [%]	Kd (human CAIX) [nM]
CC(C)C[C@@H]1NC(=O)[C@H](Cc2c[nH]c3ccccc23)NC(=O)[C@H](CC(=O)O)NC(=O)[C@H]2CCCN2C(=O)[C@H](CCC(=O)O)NC(=O)[C@@H](NC(=O)[C@H](Cc2ccc(O)cc2)NC(=O)[C@@H](NC(=O)CN2CCC(NC(=O)CN3CCN(CC(=O)O)CCN(CC(=O)O)CCN(CC(=O)O)CC3)CC2)C(C)C)CSCc2cccc(c2)CSC[C@@H](C(N)=O)NC(=O)[C@H](CO)NC(=O)[C@H](Cc2c[nH]c3ccccc23)NC(=O)[C@H]([C@@H](C)O)NC1=O [3BP-3583, DOTA-APAc-Val-Tyr-[Cys(3MeBn)-Glu-pro-Asp-Trp-Leu-Thr-Trp-Ser-Cys]-NH2] ({DOTA}-[X2]VYCE[dP]DWLTWSC-NH2; linker 4-13 via mXylylene)	< 10	A (t1/2>15.0 minutes)	> 1000	> 1000	> 1000	>95	A (pKD values >8.0)	100 to 794	79	71	–	–	–	–	–	–	–	–
CC(C)C[C@@H]1NC(=O)[C@H](Cc2ccc(NC(=O)CCS(N)(=O)=O)cc2)NC(=O)[C@H](CC(=O)O)NC(=O)[C@H]2CCCN2C(=O)[C@H](CCC(=O)O)NC(=O)[C@@H](NC(=O)[C@H](CCC(N)=O)NC(=O)CN2CCN(CC(=O)O)CCN(CC(=O)O)CCN(CC(=O)O)CC2)CSCc2cccc(c2)CSC[C@@H](C(N)=O)NC(=O)[C@H](CO)NC(=O)[C@H](Cc2c[nH]c3ccccc23)NC(=O)[C@H]([C@@H](C)O)NC1=O (natLu complex, metal not drawn) [3BP-4581]	–	–	–	–	–	–	–	–	–	–	>95	>95	–	–	–	–	–	–
CC(C)C[C@@H]1NC(=O)[C@H](Cc2cccc(NC(=O)CCCS(N)(=O)=O)c2)NC(=O)[C@H](CC(=O)O)NC(=O)[C@H]2CCCN2C(=O)[C@H](CCC(=O)O)NC(=O)[C@@H]2CSCc3cccc(c3)CSC[C@@H](C(N)=O)NC(=O)[C@H](CNC(=O)CC[C@H](NC(=O)CN3CCN(CC(=O)O)CCN(CC(=O)O)CCN(CC(=O)O)CC3)C(=O)N2)NC(=O)[C@H](Cc2c[nH]c3ccccc23)NC(=O)[C@H]([C@@H](C)O)NC1=O [3BP-4503, DOTA-{Glu-[Cys(3MeBn)-Glu-pro-Asp-Af3(Cpsu)-Leu-Thr-Trp-Dap}-Cys]-NH2] ({DOTA}-ECE[dP]D[Phe(3-NHCO(CH2)3SO2NH2)]LTW[Dap]C-NH2; lactam 1-10; linker 2-11 via mXylylene)	–	A (t1/2>15.0 minutes)	> 1000	> 1000	> 1000	–	A (pKD values >8.0)	< 10	–	–	–	–	< 10	A (pKD values >8.0)	< 10	> 95	> 95	< 10

— patent publication US20250339569A1, “CARBONIC ANHYDRASE IX LIGANDS” (priority 2021, published 2025)
